Data taken from patent US5998366A, “Method for ameliorating glutamic acid decarboxylase associated autoimmune disorders” (The Regents of the University of California, priority 1997, dated 1999).

B1: ^35 S-GAD65: 35S-labeled rat GAD65 produced in a bacterial expression system (protein, UniProt Q05683 1-585, looked up)
Glutamate decarboxylase 2: MASPGSGFWSFGSEDGSGDPENPGTARAWCQVAQKFTGGIGNKLCALLYGDSEKPAESGGSVTSRAATRKVACTCDQKPCSCPKGDVNYALLHATDLLPACEGERPTLAFLQDVMNILLQYVVKSFDRSTKVIDFHYPNELLQEYNWELADQPQNLEEILTHCQTTLKYAIKTGHPRYFNQLSTGLDMVGLAADWLTSTANTNMFTYEIAPVFVLLEYVTLKKMREIIGWPGGSGDGIFSPGGAISNMYAMLIARYKMFPEVKEKGMAAVPRLIAFTSEHSHFSLKKGAAALGIGTDSVILIKCDERGKMIPSDLERRILEVKQKGFVPFLVSATAGTTVYGAFDPLLAVADICKKYKIWMHVDAAWGGGLLMSRKHKWKLNGVERANSVTWNPHKMMGVPLQCSALLVREEGLMQSCNQMHASYLFQQDKHYDLSYDTGDKALQCGRHVDVFKLWLMWRAKGTTGFEAHIDKCLELAEYLYNIIKNREGYEMVFDGKPQHTNVCFWFVPPSLRVLEDNEERMSRLSKVAPVIKARMMEYGTTMVSYQPLGDKVNFFRMVISNPAATHQDIDFLIEEIERLGQDL
modifications: 35S label
notes: 35S-labeled rat GAD65 produced in a bacterial expression system

Columns and labels:
[1] = test system: IDDM associated autoantibodies; assay: ELISA of patient and control sera on plate-bound human GAD65 peptides; format: binding; conditions: none of the control sera
Description: A set of peptides (20-23 amino acids in length, with 5 aa overlaps) that span the human GAD65 molecule were synthesized to determine whether sera from most individuals at risk, pre-IDDM and with IDDM (in contrast to healthy controls) do in fact produce antibodies that differentially recognize GAD65 linear epitopes distributed throughout the molecule.
Patient sera and most control sera were those used in a previous study (Kaufman, et al., J. Clin. Investigation, supra) All samples were coded and tested in a blind manner. Peptides were synthesized using an automatic instrument (Applied Biosystems, Foster City, Calif.) and standard conditions. Peptides were dissolved in 60 mM sodium bicarbonate buffer (pH 9.6) at 20 ug/ml and 100 ul of each was added to duplicated wells of a 96 well Nunc-Immuno Plate. Peptides were allowed to bind at 4° C. overnight. The plates were then washed three times with PBS+0.1% Tween 20 (wash buffer), after which the plates were pre-absorbed with 3% BSA in sodium bicarbonate buffer for 0.5 hours at 37° C., or at room temperature overnight. The plates were then washed 5 times with the above wash buffer. 100 ul of serum at a 1/300 dilution in PBS+0.1% Tween 20 and 1% BSA was added to each well and antibodies were allowed to bind for 1 hour at 37° C. […] The color development was measured at 410 nm using an ELISA plate reader (ICN, Biomedicals, Costa Mesa, Calif.). […]

autoantibodies to GAD65 = assay: Immunoprecipitation of 35S-GAD65 by sera drawn before IDDM onset; format: binding, human; conditions: sera drawn 3 to 66 months before IDDM onset
Method: 5. Islet Cell Extractions and Immunoprecipitations. Islet cells were extracted as previously described by Atkinson, et al. (Lancet, 335:1357-1360, 1990) with the following modifications. […] Following another incubation with protein A Sepharose CL-4B (1 h, 4° C.), the complexes were then washed 5 times with 50 mM Tris HCL (pH 7.4) with 0.1% SDS, 1.0% Triton X-114, and 2 mM EDTA, and then washed again one time in double distilled water. The protein A Sepharose CL-4B was then boiled in Laemmli sample buffer (Laemmli, Nature, 227:680-685, 1970), and the samples were subjected to SDS-PAGE and fluororadiography (Kodak, X-omat AR5) using Enhance (New England Nuclear). Alternatively, the autoradiographs were analyzed by a BETAGEN (Boston, Mass.) analyzer. Both 64 KA positive and negative sera were used in each assay, to serve as interassay controls. All fluororadiographs were analyzed and rated as positive or negative after comparison with the known interassay controls.
A similar rating procedure was employed for the intensity of bands corresponding to immunoprecipitated ^35 S-GAD65 and ^35 S-GAD67.
6. Immunoprecipitations. […]
8. […] After sonication, cell debris was removed by centrifugation and protein concentration was measured (Bradford, Anal.Biochem., 72:248, […]) in the supernatant (supernatant was stored in aliquots at -70° C.).

| Molecule | share of patients recognizing the peptide [1] | specimens immunoreactive with the labeled protein (autoantibodies to GAD65) |
| --- | --- | --- |
| KPCSCSKVDVNYAFLHATDL [Peptide 6] | 25-37% |  |
| B1 |  | 9 out of 12 |
